From ChEMBL document CHEMBL4507289, “Data for DCP probe GSM1” (2021)

Legend:
Notch receptor = Notch receptor (Homo sapiens, UniProt P46531+Q9UM47+Q04721+Q99466); experiment: Notch assay; type: protein assay
[1] = tested on: Tyrosine-protein kinase ABL1 (Homo sapiens), P00519 [F317I]; settings: Compound concentration 1000.0 nM
[2] = tested on: Tyrosine-protein kinase ABL1 (Homo sapiens), P00519 [F317L]; settings: Compound concentration 1000.0 nM
[3] = target: Calcium/calmodulin-dependent protein kinase kinase 2 (Homo sapiens) (UniProt Q96RR4); settings: Compound concentration 1000.0 nM
[4] = target: Cyclin-dependent kinase 4 (Homo sapiens) (UniProt P11802); settings: Compound concentration 1000.0 nM
[5] = target: Cyclin-dependent kinase 7 (Homo sapiens) (UniProt P50613); settings: Compound concentration 1000.0 nM
[6] = target: Cyclin-dependent kinase 9 (Homo sapiens) (UniProt P50750); settings: Compound concentration 1000.0 nM
[7] = target: Cyclin-dependent kinase-like 5 (Homo sapiens) (UniProt O76039); settings: Compound concentration 1000.0 nM
[8] = target: Serine/threonine-protein kinase DCLK1 (Homo sapiens) (UniProt O15075); settings: Compound concentration 1000.0 nM
[9] = tested on: Epidermal growth factor receptor (Homo sapiens), P00533 [L858R]; settings: Compound concentration 1000.0 nM
[10] = target: Ephrin type-A receptor 4 (Homo sapiens) (UniProt P54764); settings: Compound concentration 1000.0 nM
[11] = target: Ephrin type-B receptor 3 (Homo sapiens) (UniProt P54753); settings: Compound concentration 1000.0 nM
[12] = target: Receptor tyrosine-protein kinase erbB-4 (Homo sapiens) (UniProt Q15303); settings: Compound concentration 1000.0 nM
[13] = target: Mitogen-activated protein kinase 1 (Homo sapiens) (UniProt P28482); settings: Compound concentration 1000.0 nM
[14] = target: Mitogen-activated protein kinase 7 (Homo sapiens) (UniProt Q13164); settings: Compound concentration 1000.0 nM
[15] = target: Mitogen-activated protein kinase 15 (Homo sapiens) (UniProt Q8TD08); settings: Compound concentration 1000.0 nM
[16] = target: Tyrosine-protein kinase Fgr (Homo sapiens) (UniProt P09769); settings: Compound concentration 1000.0 nM
[17] = tested on: Receptor-type tyrosine-protein kinase FLT3 (Homo sapiens), P36888 [K663Q]; settings: Compound concentration 1000.0 nM
[18] = target: Receptor-type tyrosine-protein kinase FLT3 (Homo sapiens) (UniProt P36888); settings: Compound concentration 1000.0 nM
[19] = target: G protein-coupled receptor kinase 4 (Homo sapiens) (UniProt P32298); settings: Compound concentration 1000.0 nM
[20] = target: Rhodopsin kinase GRK7 (Homo sapiens) (UniProt Q8WTQ7); settings: Compound concentration 1000.0 nM
[21] = target: Glycogen synthase kinase-3 beta (Homo sapiens) (UniProt P49841); settings: Compound concentration 1000.0 nM
[22] = target: Serine/threonine-protein kinase ICK (Homo sapiens) (UniProt Q9UPZ9); settings: Compound concentration 1000.0 nM
[23] = target: Mitogen-activated protein kinase 8 (Homo sapiens) (UniProt P45983); settings: Compound concentration 1000.0 nM
[24] = tested on: Mast/stem cell growth factor receptor Kit (Homo sapiens), P10721 [D816H]; settings: Compound concentration 1000.0 nM
[25] = target: Tyrosine-protein kinase Mer (Homo sapiens) (UniProt Q12866); settings: Compound concentration 1000.0 nM
[26] = target: Mitogen-activated protein kinase kinase kinase 11 (Homo sapiens) (UniProt Q16584); settings: Compound concentration 1000.0 nM
[27] = target: Myosin light chain kinase 2, skeletal/cardiac muscle (Homo sapiens) (UniProt Q9H1R3); settings: Compound concentration 1000.0 nM
[28] = target: Myosin light chain kinase family member 4 (Homo sapiens) (UniProt Q86YV6); settings: Compound concentration 1000.0 nM
[29] = target: Serine/threonine-protein kinase Nek6 (Homo sapiens) (UniProt Q9HC98); settings: Compound concentration 1000.0 nM
[30] = target: Serine/threonine-protein kinase PAK 6 (Homo sapiens) (UniProt Q9NQU5); settings: Compound concentration 1000.0 nM
[31] = target: Cyclin-dependent kinase 15 (Homo sapiens) (UniProt Q96Q40); settings: Compound concentration 1000.0 nM
[32] = tested on: Phosphatidylinositol 4,5-bisphosphate 3-kinase catalytic subunit alpha isoform (Homo sapiens), P42336 [H1047Y]; settings: Compound concentration 1000.0 nM
[33] = target: 1-phosphatidylinositol 3-phosphate 5-kinase (Homo sapiens) (UniProt Q9Y2I7); settings: Compound concentration 1000.0 nM
[34] = target: Ribosomal protein S6 kinase alpha-2 (Homo sapiens) (UniProt Q15349); settings: Compound concentration 1000.0 nM
[35] = target: STE20-like serine/threonine-protein kinase (Homo sapiens) (UniProt Q9H2G2); settings: Compound concentration 1000.0 nM
[36] = target: Serine/threonine-protein kinase 16 (Homo sapiens) (UniProt O75716); settings: Compound concentration 1000.0 nM
[37] = target: Serine/threonine-protein kinase 35 (Homo sapiens) (UniProt Q8TDR2); settings: Compound concentration 1000.0 nM
[38] = target: Serine/threonine-protein kinase tousled-like 1 (Homo sapiens) (UniProt Q9UKI8); settings: Compound concentration 1000.0 nM
[39] = target: TRAF2 and NCK-interacting protein kinase (Homo sapiens) (UniProt Q9UKE5); settings: Compound concentration 1000.0 nM
[40] = target: Transient receptor potential cation channel subfamily M member 6 (Homo sapiens) (UniProt Q9BX84); settings: Compound concentration 1000.0 nM
[41] = target: Testis-specific serine/threonine-protein kinase 1 (Homo sapiens) (UniProt Q9BXA7); settings: Compound concentration 1000.0 nM
[42] = target: Serine/threonine-protein kinase 32A (Homo sapiens) (UniProt Q8WU08); settings: Compound concentration 1000.0 nM
[43] = target: Tyrosine-protein kinase Yes (Homo sapiens) (UniProt P07947); settings: Compound concentration 1000.0 nM
[44] = target: Histamine H1 receptor (Homo sapiens) (UniProt P35367); settings: Compound concentration 10.0 uM
[45] = target: Sigma intracellular receptor 2 (Homo sapiens, UniProt Q5BJF2); settings: Compound concentration 10.0 uM
Sequence of Sigma intracellular receptor 2 (Q5BJF2 whole entry): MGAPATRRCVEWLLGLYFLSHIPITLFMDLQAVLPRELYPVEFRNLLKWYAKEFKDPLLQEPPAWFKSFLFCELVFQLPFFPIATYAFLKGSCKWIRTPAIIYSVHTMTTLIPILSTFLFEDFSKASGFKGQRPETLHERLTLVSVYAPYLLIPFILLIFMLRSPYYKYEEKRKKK

Sequence of Myosin light chain kinase family member 4 (Homo sapiens) (Q86YV6 whole entry): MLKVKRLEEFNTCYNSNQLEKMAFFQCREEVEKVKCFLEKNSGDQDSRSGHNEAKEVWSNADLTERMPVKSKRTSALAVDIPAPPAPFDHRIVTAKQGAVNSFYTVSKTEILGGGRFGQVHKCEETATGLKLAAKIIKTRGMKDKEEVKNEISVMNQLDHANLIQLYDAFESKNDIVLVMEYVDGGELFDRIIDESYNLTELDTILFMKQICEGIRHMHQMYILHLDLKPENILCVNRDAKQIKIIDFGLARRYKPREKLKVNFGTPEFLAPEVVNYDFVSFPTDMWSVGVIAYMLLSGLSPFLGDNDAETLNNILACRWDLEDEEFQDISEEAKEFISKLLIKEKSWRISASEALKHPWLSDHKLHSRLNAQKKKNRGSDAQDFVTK
Sequence of Tyrosine-protein kinase Fgr (Homo sapiens) (P09769 2-529 limits assumed): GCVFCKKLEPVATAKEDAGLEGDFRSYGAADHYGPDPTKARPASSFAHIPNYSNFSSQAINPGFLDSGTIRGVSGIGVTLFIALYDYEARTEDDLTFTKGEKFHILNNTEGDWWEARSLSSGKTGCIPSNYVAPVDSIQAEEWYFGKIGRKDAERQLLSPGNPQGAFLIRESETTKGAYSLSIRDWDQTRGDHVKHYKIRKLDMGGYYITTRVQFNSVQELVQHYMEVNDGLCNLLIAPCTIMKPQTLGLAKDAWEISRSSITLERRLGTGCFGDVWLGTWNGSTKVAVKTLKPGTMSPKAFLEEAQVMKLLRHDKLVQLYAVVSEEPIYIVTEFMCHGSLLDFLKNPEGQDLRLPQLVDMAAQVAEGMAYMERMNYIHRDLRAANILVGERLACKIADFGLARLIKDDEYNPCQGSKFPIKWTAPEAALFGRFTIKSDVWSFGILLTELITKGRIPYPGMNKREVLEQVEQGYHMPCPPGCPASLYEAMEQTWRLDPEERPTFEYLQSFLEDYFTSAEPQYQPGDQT
Sequence of Histamine H1 receptor (Homo sapiens) (P35367 whole entry): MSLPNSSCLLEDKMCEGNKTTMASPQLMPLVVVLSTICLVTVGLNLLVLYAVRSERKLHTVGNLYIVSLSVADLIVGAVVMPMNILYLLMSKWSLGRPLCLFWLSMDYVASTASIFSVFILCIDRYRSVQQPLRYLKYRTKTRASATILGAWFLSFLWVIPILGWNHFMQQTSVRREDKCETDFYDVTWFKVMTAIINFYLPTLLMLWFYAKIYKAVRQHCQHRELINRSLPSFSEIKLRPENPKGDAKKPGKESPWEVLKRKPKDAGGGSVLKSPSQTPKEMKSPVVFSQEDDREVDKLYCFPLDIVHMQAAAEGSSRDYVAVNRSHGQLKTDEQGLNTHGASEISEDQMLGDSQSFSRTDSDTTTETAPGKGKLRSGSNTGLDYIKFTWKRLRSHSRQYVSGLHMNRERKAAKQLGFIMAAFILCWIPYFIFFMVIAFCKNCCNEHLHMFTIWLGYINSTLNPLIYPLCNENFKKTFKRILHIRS
Sequence of Serine/threonine-protein kinase tousled-like 1 (Homo sapiens) (Q9UKI8 whole entry): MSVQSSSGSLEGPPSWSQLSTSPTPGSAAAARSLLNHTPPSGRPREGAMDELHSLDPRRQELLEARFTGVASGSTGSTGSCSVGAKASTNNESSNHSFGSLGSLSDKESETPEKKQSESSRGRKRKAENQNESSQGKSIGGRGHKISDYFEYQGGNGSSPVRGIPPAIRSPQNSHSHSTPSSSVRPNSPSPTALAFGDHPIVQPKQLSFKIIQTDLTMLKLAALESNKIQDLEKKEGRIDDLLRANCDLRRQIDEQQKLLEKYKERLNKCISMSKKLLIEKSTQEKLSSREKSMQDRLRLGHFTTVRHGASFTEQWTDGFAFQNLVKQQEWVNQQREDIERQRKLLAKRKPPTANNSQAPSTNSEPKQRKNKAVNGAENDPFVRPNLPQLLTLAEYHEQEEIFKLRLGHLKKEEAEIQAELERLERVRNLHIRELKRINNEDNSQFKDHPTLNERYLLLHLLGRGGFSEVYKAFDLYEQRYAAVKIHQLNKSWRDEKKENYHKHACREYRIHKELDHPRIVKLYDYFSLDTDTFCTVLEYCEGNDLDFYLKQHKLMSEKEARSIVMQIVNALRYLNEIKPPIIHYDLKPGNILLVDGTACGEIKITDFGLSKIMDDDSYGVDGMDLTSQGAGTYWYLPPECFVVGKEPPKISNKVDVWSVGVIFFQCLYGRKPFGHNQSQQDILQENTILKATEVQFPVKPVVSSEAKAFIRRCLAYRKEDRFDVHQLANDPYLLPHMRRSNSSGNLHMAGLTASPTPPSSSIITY
Sequence of Serine/threonine-protein kinase ICK (Homo sapiens) (Q9UPZ9 whole entry): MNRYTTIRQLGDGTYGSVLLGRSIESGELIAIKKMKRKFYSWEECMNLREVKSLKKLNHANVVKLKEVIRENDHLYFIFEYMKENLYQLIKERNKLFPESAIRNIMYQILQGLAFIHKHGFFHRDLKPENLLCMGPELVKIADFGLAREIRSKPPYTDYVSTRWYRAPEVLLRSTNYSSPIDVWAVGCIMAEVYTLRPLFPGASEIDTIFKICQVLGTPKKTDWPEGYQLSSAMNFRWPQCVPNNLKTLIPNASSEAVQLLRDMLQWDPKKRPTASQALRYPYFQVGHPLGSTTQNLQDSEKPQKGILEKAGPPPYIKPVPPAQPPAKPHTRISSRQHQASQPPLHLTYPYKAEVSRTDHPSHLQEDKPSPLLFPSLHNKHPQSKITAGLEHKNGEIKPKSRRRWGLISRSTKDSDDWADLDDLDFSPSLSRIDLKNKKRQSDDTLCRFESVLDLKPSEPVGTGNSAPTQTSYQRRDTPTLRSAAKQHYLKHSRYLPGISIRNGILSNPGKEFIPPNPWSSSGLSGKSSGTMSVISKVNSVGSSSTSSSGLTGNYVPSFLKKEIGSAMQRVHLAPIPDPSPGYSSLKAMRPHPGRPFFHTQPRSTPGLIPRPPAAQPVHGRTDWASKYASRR
Sequence of Myosin light chain kinase 2, skeletal/cardiac muscle (Homo sapiens) (Q9H1R3 whole entry): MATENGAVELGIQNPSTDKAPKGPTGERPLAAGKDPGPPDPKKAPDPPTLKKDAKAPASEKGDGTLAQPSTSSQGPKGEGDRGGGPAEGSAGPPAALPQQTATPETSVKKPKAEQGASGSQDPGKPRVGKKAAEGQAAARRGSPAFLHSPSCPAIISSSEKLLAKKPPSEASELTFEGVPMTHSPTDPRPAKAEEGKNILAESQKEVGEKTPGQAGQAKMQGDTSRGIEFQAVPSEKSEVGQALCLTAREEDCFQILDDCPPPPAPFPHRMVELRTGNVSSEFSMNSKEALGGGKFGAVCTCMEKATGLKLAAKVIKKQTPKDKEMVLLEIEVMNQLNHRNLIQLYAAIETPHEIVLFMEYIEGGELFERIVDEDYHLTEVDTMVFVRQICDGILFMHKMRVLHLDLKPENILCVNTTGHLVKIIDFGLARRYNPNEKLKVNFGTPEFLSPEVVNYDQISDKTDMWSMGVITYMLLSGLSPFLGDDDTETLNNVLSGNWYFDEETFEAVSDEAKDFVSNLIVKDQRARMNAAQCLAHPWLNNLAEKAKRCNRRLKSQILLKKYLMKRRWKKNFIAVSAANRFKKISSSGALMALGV
Sequence of Serine/threonine-protein kinase 35 (Homo sapiens) (Q8TDR2 whole entry): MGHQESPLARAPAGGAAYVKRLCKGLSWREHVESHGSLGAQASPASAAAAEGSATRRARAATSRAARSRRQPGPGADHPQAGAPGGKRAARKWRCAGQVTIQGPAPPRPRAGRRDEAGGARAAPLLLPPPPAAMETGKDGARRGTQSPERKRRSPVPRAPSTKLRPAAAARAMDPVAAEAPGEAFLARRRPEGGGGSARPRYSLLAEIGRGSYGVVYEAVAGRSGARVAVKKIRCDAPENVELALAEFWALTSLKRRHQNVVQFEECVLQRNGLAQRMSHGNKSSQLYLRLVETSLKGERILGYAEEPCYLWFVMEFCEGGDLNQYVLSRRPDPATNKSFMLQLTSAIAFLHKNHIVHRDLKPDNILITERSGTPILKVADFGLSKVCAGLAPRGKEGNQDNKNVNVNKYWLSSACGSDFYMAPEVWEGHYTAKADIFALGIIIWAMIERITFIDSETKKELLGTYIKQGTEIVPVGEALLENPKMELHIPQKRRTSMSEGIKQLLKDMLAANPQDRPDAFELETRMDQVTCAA
Sequence of Glycogen synthase kinase-3 beta (Homo sapiens) (P49841 whole entry, looked up): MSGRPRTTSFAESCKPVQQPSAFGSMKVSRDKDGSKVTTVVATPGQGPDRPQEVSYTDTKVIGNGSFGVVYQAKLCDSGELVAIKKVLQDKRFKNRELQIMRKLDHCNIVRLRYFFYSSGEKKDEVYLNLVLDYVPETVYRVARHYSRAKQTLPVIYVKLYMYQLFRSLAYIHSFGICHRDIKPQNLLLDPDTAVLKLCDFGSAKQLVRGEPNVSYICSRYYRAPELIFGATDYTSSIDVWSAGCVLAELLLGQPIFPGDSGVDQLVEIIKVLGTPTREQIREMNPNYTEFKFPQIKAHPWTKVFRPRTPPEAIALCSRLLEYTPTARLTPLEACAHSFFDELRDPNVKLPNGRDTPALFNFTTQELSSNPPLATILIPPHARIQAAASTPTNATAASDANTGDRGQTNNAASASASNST
Sequence of Cyclin-dependent kinase 15 (Homo sapiens) (Q96Q40 whole entry, canonical isoform): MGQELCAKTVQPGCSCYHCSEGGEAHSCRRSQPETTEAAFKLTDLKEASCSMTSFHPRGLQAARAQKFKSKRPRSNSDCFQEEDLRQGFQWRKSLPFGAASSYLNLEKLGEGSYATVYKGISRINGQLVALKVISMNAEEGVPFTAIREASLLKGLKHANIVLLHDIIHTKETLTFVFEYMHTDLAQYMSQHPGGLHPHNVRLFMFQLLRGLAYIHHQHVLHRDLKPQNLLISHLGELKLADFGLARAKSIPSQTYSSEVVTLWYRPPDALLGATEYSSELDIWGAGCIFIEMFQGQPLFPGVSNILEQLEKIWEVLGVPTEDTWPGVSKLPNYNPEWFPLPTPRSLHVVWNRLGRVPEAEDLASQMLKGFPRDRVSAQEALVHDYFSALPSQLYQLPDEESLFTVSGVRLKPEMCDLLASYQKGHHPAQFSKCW

## COc1cc(-c2cn([C@H]3CCc4ccccc4N(CC(F)(F)F)C3=O)nn2)ccc1-n1ccc(C)n1
Notch receptor
  IC50: > 50 µM
[1]
  residual activity: 67%
[2]
  residual activity: 64%
[3]
  residual activity: 100%
[4]
  residual activity: 86%
[5]
  residual activity: 87%
[6]
  residual activity: 100%
[7]
  residual activity: 87%
[8]
  residual activity: 100%
[9]
  residual activity: 97%
[10]
  residual activity: 92%
[11]
  residual activity: 100%
[12]
  residual activity: 100%
[13]
  residual activity: 100%
[14]
  residual activity: 100%
[15]
  residual activity: 100%
[16]
  residual activity: 90%
[17]
  residual activity: 100%
[18]
  residual activity: 89%
[19]
  residual activity: 100%
[20]
  residual activity: 87%
[21]
  residual activity: 85%
[22]
  residual activity: 63%
[23]
  residual activity: 55%
[24]
  residual activity: 75%
[25]
  residual activity: 100%
[26]
  residual activity: 100%
[27]
  residual activity: 73%
[28]
  residual activity: 100%
[29]
  residual activity: 100%
[30]
  residual activity: 100%
[31]
  residual activity: 100%
[32]
  residual activity: 100%
[33]
  residual activity: 100%
[34]
  residual activity: 100%
[35]
  residual activity: 100%
[36]
  residual activity: 100%
[37]
  residual activity: 100%
[38]
  residual activity: 84%
[39]
  residual activity: 81%
[40]
  residual activity: 100%
[41]
  residual activity: 83%
[42]
  residual activity: 97%
[43]
  residual activity: 100%
[44]
  inhibition: 9.72%
[45]
  inhibition: 72%

## COc1cc(-c2cn([C@H]3CCc4c(F)cccc4N(CC(F)(F)F)C3=O)nn2)ccc1-n1cnc(C)c1
Notch receptor
  IC50: 397.8 µM
[1]
  residual activity: 100%
[2]
  residual activity: 85%
[3]
  residual activity: 100%
[4]
  residual activity: 100%
[5]
  residual activity: 100%
[6]
  residual activity: 97%
[7]
  residual activity: 91%
[8]
  residual activity: 100%
[9]
  residual activity: 100%
[10]
  residual activity: 100%
[11]
  residual activity: 100%
[12]
  residual activity: 100%
[13]
  residual activity: 100%
[14]
  residual activity: 80%
[15]
  residual activity: 78%
[16]
  residual activity: 100%
[17]
  residual activity: 92%
[18]
  residual activity: 100%
[19]
  residual activity: 100%
[20]
  residual activity: 100%
[21]
  residual activity: 100%
[22]
  residual activity: 65%
[23]
  residual activity: 52%
[24]
  residual activity: 67%
[25]
  residual activity: 100%
[26]
  residual activity: 100%
[27]
  residual activity: 100%
[28]
  residual activity: 100%
[29]
  residual activity: 100%
[30]
  residual activity: 100%
[31]
  residual activity: 100%
[32]
  residual activity: 100%
[33]
  residual activity: 100%
[34]
  residual activity: 100%
[35]
  residual activity: 100%
[36]
  residual activity: 100%
[37]
  residual activity: 100%
[38]
  residual activity: 100%
[39]
  residual activity: 94%
[40]
  residual activity: 100%
[41]
  residual activity: 100%
[42]
  residual activity: 100%
[43]
  residual activity: 100%
[44]
  inhibition: 7.55%
[45]
  inhibition: 50%
